Data set [1] concerns Salmonella Typhimurium in PAM. Kind of data set: Invasion assay in PAM. The format is cell-based, porcine. To be noted: for invasion of Salmonella Typhimurium in PAM: 1 μM. The method, then:
(§1) For the invasion assays, PAM and IPEC-J2 cells were seeded in 24-well plates at a density of approximately 5×10^5 cells and 10^5 cells per well, respectively. PAM were allowed to attach for at least 2 hours and IPEC-J2 cells were allowed to grow for at least 24 hours. […] After 24 hours the invasion assay was performed as described by Boyen et al., 2009a. Finally the PAM and IPEC-J2 cells were washed 3 times and lysed for 10 min with 1% (v/v) Triton X-100 or 0.2% (w/v) sodium deocxycholate (Sigma-Aldrich), respectively and 10-fold dilutions were plated on BGA plates.

Data set [2] relates to Salmonella Typhimurium in IPEC-J2 cells. Kind of data set: Intracellular survival assay in IPEC-J2 cells. The format is cell-based, porcine. As for the experimental part: The polarized intestinal porcine epithelial (IPEC-J2) cell line is derived from jejunal epithelia isolated from a neonatal piglet (Rhoads et al., 1994; Schierack et al., 2006).
(§2) The number of viable bacteria was assessed 24 hours after infection.

Data set [3] shares this test system. Kind of data set: Invasion assay in IPEC-J2 cells. The format is cell-based, porcine. The conditions noted are these: for invasion of Salmonella Typhimurium in IPEC-J2 cells: 1 μM. As for the experimental part:
as §1

Data set [4] has as its system Salmonella Typhimurium in PAM. Description: Intracellular survival assay in PAM. The data set is classed as cell-based, porcine. To be noted: for intracellular proliferation of Salmonella Typhimurium in PAM: 1 μM.
Excerpt: Porcine pulmonary alveolar macrophages (PAM) were isolated by broncho-alveolar washes from lungs of euthanized 3 to 4 week old piglets, obtained from a Salmonella-negative farm, as described previously (Dom et al., 1992). The isolated cells were pooled and frozen in liquid nitrogen until further use. Prior to seeding the cells, frozen aliquots of approximately 10^8 cells per ml were thawed and washed 3 times in Hank's buffered salt solution with Ca^2+ and Mg^2+ (HBSS+, Gibco) with 10% (v/v) fetal calf serum (FKS, Hyclone, Cramlington, England) at 4° C. Finally, these cells were cultured in Roswell Park Memorial Institute medium (RPMI, Gibco) containing 10% (v/v) FKS, 1% (v/v) L-glutamine (Gibco), 1% (v/v) sodium pyruvate (Gibco), 1% (v/v) MEM non essential amino acids (NEAA, Gibco) and 1% (v/v) penicillin-streptomycin (Gibco).
as §2
Following the IVET screening, the intracellular survival assay was repeated with Salmonella Typhimurium ΔscsA and ΔcbpA and compared to the WT.

The test system of data set [5] is Salmonella Typhimurium WT. Description: Effect of cortisol on the growth of Salmonella Typhimurium. To be noted: 0.001 to 100 μM, LB broth, 24 hours. As for the experimental part: Therefore, Salmonella Typhimurium was grown in LB broth whether or not supplemented with cortisol. The number of CFU per ml was determined at different time points by titration of 10-fold dilutions of the bacterial suspensions on BGA. After incubation for 24 hours at 37° C., the number of colonies was counted.

The test system of data set [6] is Salmonella Typhimurium in PAM. To be noted: 1 μM, 24 hours; cited from earlier work.
The test system of data set [7] is PAM. Kind of data set: Cytotoxicity assay (LDH). The format is cell-based, porcine. The conditions noted are these: 0.001 to 100 μM. The method, then:
Therefore PAM were seeded in a 96-well microplate at a density of approximately 2×10^5 cells per well and were allowed to attach for at least 2 hours. The IPEC-J2 cells were seeded and allowed to grow for at least 24 hours in a 96-well microplate at a density of approximately 2×10^4 cells per well in Dulbecco's modified Eagle's is medium (DMEM, Gibco) supplemented with 46.5% (v/v) Ham's F12 medium (Gibco), 5% (v/v) FKS and 1% insulin-transferrin-selenium-A supplement (ITS, Gibco).
The LDH test was used in accordance to the manufacturer's instructions and the absorbance was measured at 492 nm using a microplate ELISA reader (Multiscan M S, Thermo Labsystems, Helsinki, Finland).

Data set [8] deals with Salmonella Typhimurium WT. Description: Effect of cortisol on the gene expression of Salmonella Typhimurium (microarray). To be noted: 1 μM, stationary and logarithmic phase culture. The method, then:
Two OD600 nm units of each culture were incubated in one-fifth culture volume 5% (v/v) phenol pH 4.3/95% (v/v) ethanol solution for 30 min on ice to stabilize the RNA. Subsequently, the RNA was extracted using the SV Total RNA purification kit (Promega, Leiden, the Netherlands).
Each condition was tested in triplicate and transcriptomic techniques involved Salmonella Typhimurium microarrays constructed at the Institute of Food Research, Norwich, UK, as described previously (Clements et al., 2002; Yberg et al., 2006). The microarray used in this study was the whole-genome SALSA cDNA microarray covering 5080 genes and data analysis was performed as described by Eriksson-Ygberg et al., 2006.

Data set [9] deals with Salmonella Typhimurium infected PAM. Kind of data set: iTRAQ comparative proteome study of cortisol treated Salmonella infected PAM. The format is cell-based, porcine. The conditions noted are these: 1 μM cortisol. The source says: We used a gel-free approach called isobaric tags for relative and absolute quantification (iTRAQ) in which four different isobaric labels are used to tag N-termini and lysine side chains of four different samples with four different isobaric reagents. Upon collision-induced dissociation during MS/MS, the isobaric tags are released, which results in four unique reporter ions that are used to quantify the proteins in the four different samples (Ross et al., 2004).
Sample preparation: PAM were isolated and cultured as described in Verbrugghe et al. (2011), they were seeded in 175 cm^2 cell culture flasks at a density of approximately 5×10^7 cells per flask and were allowed to attach for 2 hours. Subsequently, PAM were washed 3 times with Hank's buffered salt solution with Ca^2+ and Mg^2+ (HBSS+, Gibco) and a gentamicin protection invasion assay was performed as described by Boyen et al. (2009a). Briefly, Salmonella was inoculated into the cell culture flasks at a multiplicity of infection (MOI) of 10:1. To synchronize the infection, the inoculated flasks were centrifuged at 365×g for 10 min and incubated for 30 min at 37° C. under 5% CO2. […] The supernatant was held on ice until further use and the pellet was dissolved and sonicated (6 times 30 sec), using an ultrasonic processor XL 2015 (Misonix, Farmingdale, N.Y., USA), in reagent 3 of the Ready Prep Sequential extraction kit (Bio-Rad, Hercules, Calif., USA). […] Protein concentration was determined using the Bradford Protein Assay (Thermo Fisher Scientific, Rockford, USA) according to the manufacterer's instructions.
Trypsin digest and iTRAQ labeling: Digest and labeling of the samples (100 μg proteins per sample) with iTRAQ reagents was performed according to the manufacturer's guidelines (AB Sciex, Foster City, Calif., USA). Individual samples of cortisol treated or untreated PAM were analyzed in the same run, making paired comparisons possible and minimizing technical variation. […] Each fraction was analyzed by nano LC-MSMS as described by Bijttebier et al. (2009). […]

Data set [10] deals with Salmonella Typhimurium in PAM. Kind of data set: Contribution of the cytoskeleton to cortisol induced intracellular proliferation in PAM. The format is cell-based, porcine. The conditions noted are these: 2 μM cytochalasin D and/or 20 μM nocodazole, 1 μM cortisol, 24 hours. The method, then:
Therefore, PAM is were seeded in 24-well plates at a density of approximately 5×10^5 cells per well, allowed to attach for 2 hours and infected with Salmonella, as described in the iTRAQ analysis.

The test system of data set [11] is pig. To be noted: 2 mg dexamethasone per kg body weight; cited from earlier work.

As to `CNC[C@H](O)c1ccc(O)c(O)c1` [Epinephrine, epinephrine], the “invasion of Salmonella Typhimurium in PAM” value in data set [1] was “did neither affect”. In addition, the “intracellular proliferation of Salmonella Typhimurium in IPEC-J2 cells” value (shortened to “intracellular proliferation … in IPEC-J2 cells”) in data set [2] (1 μM) was “did neither affect”. Further, the “invasion of Salmonella Typhimurium in IPEC-J2 cells” value in data set [3] was “did neither affect”. The “intracellular proliferation of Salmonella Typhimurium in PAM” value (shortened to “intracellular proliferation … in PAM”) in [4] is “did neither affect”.

Turning to `C[C@]12CCC(=O)C=C1CC[C@@H]1[C@@H]2[C@@H](O)C[C@@]2(C)[C@H]1CC[C@]2(O)C(=O)CO` [cortisol, Cortisol], the “growth of Salmonella” value in [5] was “did not affect”. The “invasion in PAM” value in data set [1] (0.001 to 100 μM) is listed as “did neither affect”. Further, the “number of intracellular Salmonella Typhimurium bacteria compared to untreated PAM” value in data set [6] is recorded as “significant increase”. Also, the “effect on cell viability” value in data set [7] is “did not exert a notable effect”. Further, in data set [8], the “gene expression levels by microarray analysis” value is “did not significantly affect”. In addition, in data set [2] (0.001 to 100 μM), the “intracellular proliferation … in IPEC-J2 cells” value was “did neither affect”. Besides, in data set [9], the “number of proteins more abundant in cortisol treated PAM” value amounted to 21; the “number of proteins with higher levels in untreated PAM” value was “Two”; the “number of proteins with recurrent expressional differences, treated vs untreated infected PAM” value is 23. Also, the “invasion in IPEC-J2 cells” value in [3] (0.001 to 100 μM) is listed as “did neither affect”. In addition, the “intracellular proliferation of Salmonella Typhimurium in treated PAM in comparison to non-treated cells” value in [4] (24 hours) was “higher”. Further, the “concentration leading to a significant dose-dependent increase of the number of intracellular bacteria” value in data set [4] (PAM, 24 hours) was 100 nM.

As for `C=C1[C@@H](C)[C@H]2[C@H](Cc3ccccc3)NC(=O)[C@]23[C@H](OC(C)=O)/C=C/[C@@](C)(O)C(=O)[C@@H](C)C/C=C/[C@H]3[C@@H]1O` [cytochalasin D], the “cortisol induced increased survival of the bacterium in PAM” value in [10] is reported as “inhibition”.

For the compound `C[C@@H]1C[C@H]2[C@@H]3CCC4=CC(=O)C=C[C@]4(C)[C@@]3(F)[C@@H](O)C[C@]2(C)[C@@]1(O)C(=O)CO` [dexamethasone], in data set [7], the “effect on cell viability” value was “did not exert a notable effect”. The “immunosuppression of the pig” value in data set [11] is “does not cause immunosuppression”.

With `NCCc1ccc(O)c(O)c1` [dopamine], the “invasion of Salmonella Typhimurium in PAM” value in data set [1] is reported as “did neither affect”. The “intracellular proliferation … in IPEC-J2 cells” value in [2] (1 μM) is “did neither affect”. Also, in data set [3], the “invasion of Salmonella Typhimurium in IPEC-J2 cells” value is on record as “did neither affect”. In addition, in data set [4], the “intracellular proliferation … in PAM” value was “did neither affect”.

Regarding `COC(=O)Nc1nc2ccc(C(=O)c3cccs3)cc2[nH]1` [nocodazole], the “cortisol induced increased survival of the bacterium in PAM” value in data set [10] is listed as “inhibition”.

For `NC[C@H](O)c1ccc(O)c(O)c1` [norepinephrine], the “invasion of Salmonella Typhimurium in PAM” value in data set [1] is on record as “did neither affect”. For the same compound, the “intracellular proliferation … in IPEC-J2 cells” value in data set [2] (1 μM) is “did neither affect”. Besides, the “invasion of Salmonella Typhimurium in IPEC-J2 cells” value in [3] is listed as “did neither affect”. For the same compound, the “intracellular proliferation … in PAM” value in [4] is “did neither affect”.

Source of the values: patent US9125855B2, “Prevention of Salmonella recrudescense” (priority 2011, dated 2015).
